What was measured:
[1] = FIG. 3 / FIG. 4
Description: The tactile hypersensitivity of 5-6 mice (weighing approx. 25 g) per group was scored every five minutes between 15 and 50 minutes following intraperitoneal dosing with 300 ng/kg (in a 1 mL/kg volume) sulprostone (Cayman Chemical Company, Ann Arbor, Mich.). Compound I or vehicle was administered intraperitoneally 15 minutes prior to sulprostone.
(§3) Tactile hypersensitivity was quantified by scoring the response of mice to light stroking of their flanks with a small paintbrush, which is not normally painful.
The computer analyses this movement and records total activity. Locomotor activity relative to vehicle-treated animals was expressed as a percentage; percentage sedation was calculated as 100% minus the percent locomotor activity. Statistical calculations of significance for in vivo studies were done using a two-tailed Student's t-test.

[2] = molecular target: T1, alpha-1A adrenergic receptor (Homo sapiens, UniProt P35348); assay: FLIPR assay (intracellular calcium), alpha-1A adrenergic receptor; assay type: cell-based; conditions: for EC50: first line of cell, HEK 293 cells, unit inferred, compounds tested at 0.64 nM-10,000 nM, read-out: α-1A agonism EC50; for alpha-1A activity in words (agonist/antagonist): Table 2; for α-1A relative efficacy as compared to norepinephrine: agonism
T1 sequence (P35348 1-466): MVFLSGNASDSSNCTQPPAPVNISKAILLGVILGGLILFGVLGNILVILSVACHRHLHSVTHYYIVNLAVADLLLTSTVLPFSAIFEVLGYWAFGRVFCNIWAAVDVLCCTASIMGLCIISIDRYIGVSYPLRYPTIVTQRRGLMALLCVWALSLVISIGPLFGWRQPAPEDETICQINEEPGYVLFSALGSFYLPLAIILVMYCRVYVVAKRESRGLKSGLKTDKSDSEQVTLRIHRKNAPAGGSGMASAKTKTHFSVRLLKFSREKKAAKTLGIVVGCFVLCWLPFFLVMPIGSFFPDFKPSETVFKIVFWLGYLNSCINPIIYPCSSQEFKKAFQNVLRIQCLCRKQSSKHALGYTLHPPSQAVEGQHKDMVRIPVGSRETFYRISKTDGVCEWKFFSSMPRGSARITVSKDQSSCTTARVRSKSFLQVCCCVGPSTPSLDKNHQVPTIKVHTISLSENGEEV
Description: (§1) Compounds of the invention were evaluated in a FLIPR assay in order to determine their specificity for five alpha adrenergic receptors. The FLIPR assay measures release of intracellular calcium in response to receptor activation. Cells are preloaded with a calcium sensitive dye that fluoresces in response to calcium. Receptors that activate the G protein, Gq, elicit the response. Alpha adrenergic receptors, which normally couple to Gi, trigger the increase in intracellular calcium when coexpressed with a hybrid Gq protein containing a Gi receptor recognition domain, designated Gq/i5 (Conklin et al., Nature 363:274-6 (1993)) or with the promiscuous G protein Ga16.
(§2) The assay was performed essentially as follows. HEK 293 cells stably expressing an alpha-2 receptor and either the chimeric G-protein Gqi5 or the promiscuous G protein G16 were plated in poly-D-lysine coated 384-well plates at 20,000-25,000 cells per well and grown overnight in DMEM supplemented with 10% FBS. Cells were washed twice with HBSS/HEPES Buffer (1× Hanks Buffered Salt Solution, 20 mM HEPES, pH 7.4) prior to the addition of Fluo-4-AM (4 μM Fluo-4-AM, 0.04% pluronic acid in HBSS/HEPES Buffer), a calcium-sensitive dye. Cells were loaded with dye for 60 minutes at 37° C., then washed 4 times with HBSS/HEPES Buffer. The reaction was initiated by the addition of the appropriate dilutions of compounds (final concentration between 0.64 nM-10,000 nM) and the transient calcium signal captured. The peak height of the calcium curve was determined and utilized for calculation of EC50 and efficacy using ActivityBase.

[3] = molecular target: T2, alpha-1B adrenergic receptor (Homo sapiens, UniProt P35368); assay: FLIPR assay (intracellular calcium), alpha-1B adrenergic receptor; assay type: cell-based; conditions: unit inferred; for EC50: first line of cell, compounds tested at 0.64 nM-10,000 nM, read-out: α-1B agonism EC50; for IC50: second line of cell, read-out: α-1B antagonism IC50
T2 sequence (P35368 1-520): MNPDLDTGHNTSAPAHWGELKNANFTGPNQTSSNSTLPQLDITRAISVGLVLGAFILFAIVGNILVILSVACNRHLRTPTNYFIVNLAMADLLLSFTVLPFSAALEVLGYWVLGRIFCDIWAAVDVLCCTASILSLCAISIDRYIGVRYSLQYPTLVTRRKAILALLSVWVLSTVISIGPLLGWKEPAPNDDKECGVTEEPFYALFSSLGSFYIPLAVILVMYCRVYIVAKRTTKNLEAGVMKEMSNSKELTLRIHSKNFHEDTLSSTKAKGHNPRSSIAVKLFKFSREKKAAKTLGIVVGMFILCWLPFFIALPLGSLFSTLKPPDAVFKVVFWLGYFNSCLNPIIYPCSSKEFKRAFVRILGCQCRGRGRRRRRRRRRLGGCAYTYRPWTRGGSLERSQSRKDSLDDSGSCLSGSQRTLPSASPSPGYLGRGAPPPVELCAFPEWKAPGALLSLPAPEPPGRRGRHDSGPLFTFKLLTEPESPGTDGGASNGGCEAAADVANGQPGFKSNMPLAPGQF
Description: as §1, §2

[4] = molecular target: T3, alpha-2A adrenergic receptor (Homo sapiens, UniProt P08913); assay: FLIPR assay (intracellular calcium), alpha-2A adrenergic receptor; assay type: cell-based; conditions: for alpha-2A activity in words (agonist/antagonist): Table 2; for EC50: first line of cell, compounds tested at 0.64 nM-10,000 nM, read-out: α-2A agonism EC50; for α-2A relative efficacy as compared to norepinephrine: agonism
T3 construct: expressed in transfected cells
T3 sequence (P08913 1-465): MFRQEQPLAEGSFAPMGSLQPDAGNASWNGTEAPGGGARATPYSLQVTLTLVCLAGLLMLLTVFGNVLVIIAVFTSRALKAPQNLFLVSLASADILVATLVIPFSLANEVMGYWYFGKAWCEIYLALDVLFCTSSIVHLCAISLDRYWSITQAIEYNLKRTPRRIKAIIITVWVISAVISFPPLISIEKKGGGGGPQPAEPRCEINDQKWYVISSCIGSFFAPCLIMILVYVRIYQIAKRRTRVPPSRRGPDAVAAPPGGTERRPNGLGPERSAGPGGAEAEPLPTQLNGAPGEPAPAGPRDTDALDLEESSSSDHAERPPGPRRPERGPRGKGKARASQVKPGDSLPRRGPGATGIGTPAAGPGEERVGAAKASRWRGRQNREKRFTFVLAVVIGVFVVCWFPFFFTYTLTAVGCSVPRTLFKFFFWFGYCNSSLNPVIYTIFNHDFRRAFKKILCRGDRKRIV
Description: as §1, §2

[5] = molecular target: T4, alpha-2B adrenergic receptor (Homo sapiens, UniProt P18089); assay: FLIPR assay (intracellular calcium), alpha-2B adrenergic receptor; assay type: cell-based; conditions: for alpha-2B activity in words (agonist/antagonist): Table 2; for α-2B relative efficacy as compared to norepinephrine: agonism, value in parenthesis; for EC50: first line of cell, unit inferred, compounds tested at 0.64 nM-10,000 nM, read-out: α-2B agonism EC50
T4 construct: expressed in transfected cells
T4 sequence (P18089 1-450): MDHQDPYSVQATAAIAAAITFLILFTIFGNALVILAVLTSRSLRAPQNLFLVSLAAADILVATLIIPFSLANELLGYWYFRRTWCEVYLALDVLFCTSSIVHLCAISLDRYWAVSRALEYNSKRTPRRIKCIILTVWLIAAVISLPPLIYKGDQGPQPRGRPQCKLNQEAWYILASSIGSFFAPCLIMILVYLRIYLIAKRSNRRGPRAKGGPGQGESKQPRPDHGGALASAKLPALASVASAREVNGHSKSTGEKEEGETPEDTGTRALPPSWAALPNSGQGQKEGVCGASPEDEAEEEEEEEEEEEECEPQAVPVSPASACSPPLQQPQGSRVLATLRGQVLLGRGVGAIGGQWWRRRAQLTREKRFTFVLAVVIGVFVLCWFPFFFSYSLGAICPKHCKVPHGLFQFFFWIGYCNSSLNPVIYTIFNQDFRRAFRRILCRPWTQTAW
Description: as §1, §2

[6] = molecular target: T5, alpha-2C adrenergic receptor (Homo sapiens, UniProt P18825); assay: FLIPR assay (intracellular calcium), alpha-2C adrenergic receptor; assay type: cell-based; conditions: for alpha-2C activity in words (agonist/antagonist): Table 2; for α-2C relative efficacy as compared to norepinephrine: agonism, value in parenthesis; for EC50: first line of cell, unit inferred, compounds tested at 0.64 nM-10,000 nM, read-out: α-2C agonism EC50
T5 construct: expressed in transfected cells
T5 sequence (P18825 1-462): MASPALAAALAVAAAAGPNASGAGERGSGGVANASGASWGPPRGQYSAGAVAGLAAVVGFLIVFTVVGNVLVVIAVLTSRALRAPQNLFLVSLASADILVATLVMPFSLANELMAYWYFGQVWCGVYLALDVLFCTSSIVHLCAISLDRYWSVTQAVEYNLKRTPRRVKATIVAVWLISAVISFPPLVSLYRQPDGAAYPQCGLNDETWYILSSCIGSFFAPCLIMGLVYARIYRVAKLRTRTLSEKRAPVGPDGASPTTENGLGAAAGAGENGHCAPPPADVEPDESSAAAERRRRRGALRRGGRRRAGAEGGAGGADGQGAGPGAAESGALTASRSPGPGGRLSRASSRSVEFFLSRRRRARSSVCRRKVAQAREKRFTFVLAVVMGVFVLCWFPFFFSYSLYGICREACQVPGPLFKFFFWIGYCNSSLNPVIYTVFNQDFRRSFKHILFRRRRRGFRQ
Description: as §1, §2

[7] = test system: mice; assay: Sulprostone-induced tactile hypersensitivity; assay type: in vivo; conditions: 0.3 mg/kg intraperitoneally 15 minutes prior to sulprostone
Description: The tactile hypersensitivity of 5-6 mice (weighing approx. 25 g) per group was scored every five minutes between 15 and 50 minutes following intraperitoneal dosing with 300 ng/kg (in a 1 mL/kg volume) sulprostone (Cayman Chemical Company, Ann Arbor, Mich.).
as §3

[8] = test system: mice; assay: Locomotor activity (sedation); assay type: in vivo; conditions: 30 minutes after dosing
[9] = test system: mice; conditions: as described in Gil et al., Br J Pharmacol 153: 769-74 (2008); cited from earlier work
[10] = second line of cell, value in parenthesis

| SMILES | margin of safety for pain reduction vs. sedation [1] | EC50 [2] | EC50 [3] | IC50 [3] | alpha-2A activity in words (agonist/antagonist) [4] | EC50 ([4]; unit inferred) | alpha-2B activity in words (agonist/antagonist) [5] | α-2B relative efficacy as compared to norepinephrine [5] | EC50 [5] | alpha-2C activity in words (agonist/antagonist) [6] | α-2C relative efficacy as compared to norepinephrine [6] | EC50 [6] | alpha-1A activity in words (agonist/antagonist) [2] | α-1A relative efficacy as compared to norepinephrine ([2]; value in parenthesis) | α-2A relative efficacy as compared to norepinephrine ([4]; value in parenthesis) | activity in sulprostone-induced tactile hypersensitivity model [9] | other results |
| --- | --- | --- | --- | --- | --- | --- | --- | --- | --- | --- | --- | --- | --- | --- | --- | --- | --- |
| Cc1cccc([C@H](C)c2cnc[nH]2)c1C [dexmedetomidine] | no margin of safety | – | – | – | – | – | – | – | – | – | – | – | – | – | – | – | – |
| Cc1c(CO)cccc1[C@@H](C)c1c[nH]cn1 [Compound II, (R)-(3-(1-(1H-imidazol-4-yl)ethyl)-2-methylphenyl)methanol] | – | > 10 µM | > 10 µM | > 8.3 µM | antagonist | > 10 µM | agonist | (.68) | 0.0528 µM | agonist | (.64) | 0.171 µM | – | – | – | – | α-1A percent antagonism [2, 10]: (39%); α-2A percent antagonism [4, 10]: (96%); IC50 ([4]; second line of cell, unit inferred, read-out: α-2A antagonism IC50): 0.144 µM |
| Cc1c(CO)cccc1C(C)c1c[nH]cn1 (racemic) [Compound I, (3-(1-(1H-imidazol-4-yl)ethyl)-2-methylphenyl)methanol] | > 10 fold | 1.63 µM | > 10 µM | > 8.3 µM | alpha-2 pan agonist | 0.0537 µM | alpha-2 pan agonist | (.94) | 0.0055 µM | alpha-2 pan agonist | (.98) | 0.0157 µM | some alpha-1A agonist activity | (.69) | (.75) | – | reduction in sulprostone induced hypersensitivity [7]: back to control levels; sedation (locomotor activity) ([8]; 1 mg/kg intraperitoneal): minimally sedating; sedation (locomotor activity) ([8]; 3 mg/kg intraperitoneal): highly sedating |
| NCC1(CC(=O)O)CCCCC1 [gabapentin] | – | – | – | – | – | – | – | – | – | – | – | – | – | – | – | active | – |
| CN(C)CCC=C1c2ccccc2CCc2ccccc21 [amitriptyline] | – | – | – | – | – | – | – | – | – | – | – | – | – | – | – | active | – |
| Cc1c(CO)cccc1[C@H](C)c1c[nH]cn1 [Compound III, (S)-(3-(1-(1H-imidazol-4-yl)ethyl)-2-methylphenyl)methanol] | – | 0.445 µM | > 8.3 µM | – | alpha-2 pan agonist | 0.072 µM | alpha-2 pan agonist | (.93) | 0.003 µM | alpha-2 pan agonist | (1) | 0.008 µM | some alpha-1A agonist activity | (.76) | (.9) | – | – |

From patent US9555021B2, “Pharmaceutical compositions comprising (3-(1-(1H-imidazol-4-yl)ethyl)-2-methylphenyl)methanol” (Allergan, Inc., priority 2009, dated 2017)
